One may read the IC50 as the concentration that gives 50% inhibition.

The results in this text go back to patent publication US9994590B2, “Substituted [1,2,4]triazolo[1,5-a]pyrazines as phosphodiesterase inhibitors” (Sunovion Pharamaceuticals Inc., priority 2012, dated 2018).

The target of this assay is recombinant human PDE-10 enzyme (human PDE-10A) (Homo sapiens (Human), UniProt Q9Y233). The experiment in a line: human PDE-10 inhibition assay (Molecular Devices IMAP PDE Fluorescence Polarization, enzyme assay IC50). In kind it is biochemical. Conditions: Fluorescein-labeled cAMP/cGMP substrate, 40-minute incubation at 37° C. Here is the method:
In one embodiment, the compounds provided herein were assayed for their ability to inhibit human PDE-10A. In one embodiment, the activities of the compounds were determined using the Molecular Devices IMAP PDE Fluorescence Polarization assay using recombinant human PDE-10 enzyme expressed in a baculoviral system. Briefly, 10 μL of a compound (0.2 nM-20 μM) was added to either a 96-well half area black plate or a 384-well black plate along with 10 μL of Fluorescein-labeled cAMP/cGMP substrate as per manufacturer's instructions and 10 μL of PDE enzyme (activity 0.1 U). Following a 40-minute incubation at 37° C., 60 μL of IMAP binding reagent was added. The plate was then read on a Perkin Elmer Victor (480-535 nm). The data was analyzed using Prism Software (GraphPad Inc, San Diego, Calif.).

The structures appear in SMILES notation.

recombinant human PDE-10 enzyme (human PDE-10A), sequence (Q9Y233 whole entry): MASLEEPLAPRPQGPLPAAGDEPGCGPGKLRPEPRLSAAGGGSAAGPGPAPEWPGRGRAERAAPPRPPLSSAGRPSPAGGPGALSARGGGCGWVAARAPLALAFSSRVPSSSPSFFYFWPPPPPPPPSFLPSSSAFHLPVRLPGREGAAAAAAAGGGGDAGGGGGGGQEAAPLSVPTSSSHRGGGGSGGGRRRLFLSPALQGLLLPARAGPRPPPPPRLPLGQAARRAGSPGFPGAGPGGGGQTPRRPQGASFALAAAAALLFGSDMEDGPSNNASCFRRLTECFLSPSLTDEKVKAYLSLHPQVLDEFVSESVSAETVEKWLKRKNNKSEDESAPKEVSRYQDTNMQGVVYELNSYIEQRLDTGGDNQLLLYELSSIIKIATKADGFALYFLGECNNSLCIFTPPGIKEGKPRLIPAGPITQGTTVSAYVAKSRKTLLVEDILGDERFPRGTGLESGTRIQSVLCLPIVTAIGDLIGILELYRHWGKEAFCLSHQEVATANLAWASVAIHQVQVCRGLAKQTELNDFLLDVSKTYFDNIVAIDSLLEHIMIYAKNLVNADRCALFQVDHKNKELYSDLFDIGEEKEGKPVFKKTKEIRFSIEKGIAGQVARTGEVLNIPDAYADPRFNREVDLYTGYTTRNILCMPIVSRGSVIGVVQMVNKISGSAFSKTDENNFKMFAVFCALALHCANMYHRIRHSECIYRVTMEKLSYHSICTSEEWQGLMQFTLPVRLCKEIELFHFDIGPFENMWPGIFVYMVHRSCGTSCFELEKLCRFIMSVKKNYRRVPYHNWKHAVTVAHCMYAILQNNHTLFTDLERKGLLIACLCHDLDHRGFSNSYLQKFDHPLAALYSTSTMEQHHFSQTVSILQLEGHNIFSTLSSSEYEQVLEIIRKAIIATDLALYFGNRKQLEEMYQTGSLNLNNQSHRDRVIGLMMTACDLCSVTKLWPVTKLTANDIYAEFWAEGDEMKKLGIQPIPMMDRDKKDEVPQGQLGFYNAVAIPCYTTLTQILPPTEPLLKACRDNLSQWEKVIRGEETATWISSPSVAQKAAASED

Consider `Cc1ncc(C)n2nc(C3CC3c3nc4c5cccc(F)c5ccn4c3C)nc12` (racemic) [Compound 30, (±)-2-(2-(5,8-dimethyl-[1,2,4]triazolo[1,5-a]pyrazin-2-yl)cyclopropyl)-7-fluoro-3-methylimidazo[2,1-a]isoquinoline], for which the IC50 fell in the range of 10 to 100 nM. With `Cc1ncc(C)n2nc(C3CC3c3nc4c(OC(F)F)cccn4c3C)nc12` (racemic) [Compound 31, (±)-2-(2-(8-(difluoromethoxy)-3-methylimidazo[1,2-a]pyridin-2-yl)cyclopropyl)-5,8-dimethyl-[1,2,4]triazolo[1,5-a]pyrazine], the IC50 is 100 to 500 nM.

With `CCOc1cccn2c(C)c(C3CC3c3nc4c(C)ncc(C)n4n3)nc12` (racemic) [Compound 32, (±)-2-(2-(8-ethoxy-3-methylimidazo[1,2-a]pyridin-2-yl)cyclopropyl)-5,8-dimethyl-[1,2,4]triazolo[1,5-a]pyrazine], the IC50 lay in the range of 10 to 100 nM. Next, `Cc1cc2nc(C3CC3c3nc4c(C)ncc(C)n4n3)c(C)n2cc1F` (racemic) [Compound 33, (±)-2-(2-(6-fluoro-3,7-dimethylimidazo[1,2-a]pyridin-2-yl)cyclopropyl)-5,8-dimethyl-[1,2,4]triazolo[1,5-a]pyrazine]: 100 to 500 nM; `COc1cc(F)cn2c(C)c(C3CC3c3nc4c(C)ncc(C)n4n3)nc12` (racemic) [Compound 34, (±)-2-(2-(6-fluoro-8-methoxy-3-methylimidazo[1,2-a]pyridin-2-yl)cyclopropyl)-5,8-dimethyl-[1,2,4]triazolo[1,5-a]pyrazine]: 10 to 100 nM. Consider `Cc1ncc(C)n2nc(C3CC3c3nc4c5c(ccn4c3C)OCCO5)nc12` (racemic) [Compound 35, (±)-9-(2-(5,8-dimethyl-[1,2,4]triazolo[1,5-a]pyrazin-2-yl)cyclopropyl)-8-methyl-2,3-dihydro-[1,4]dioxino[2,3-c]imidazo[1,2-a]pyridine], for which the IC50 is 10 to 100 nM. Next, `COc1cc(C)cn2c(C)c(C3CC3c3nc4c(C)ncc(C)n4n3)nc12` (racemic) [Compound 36, (±)-2-(2-(8-methoxy-3,6-dimethylimidazo[1,2-a]pyridin-2-yl)cyclopropyl)-5,8-dimethyl-[1,2,4]triazolo[1,5-a]pyrazine]: 10 to 100 nM. The result for `COc1cc(OC)c2nc(C3CC3c3nc4c(C)ncc(C)n4n3)c(C)n2c1` (racemic) [Compound 37, (±)-2-(2-(6,8-dimethoxy-3-methylimidazo[1,2-a]pyridin-2-yl)cyclopropyl)-5,8-dimethyl-[1,2,4]triazolo[1,5-a]pyrazine] reads 10 to 100 nM; that for `Cc1ncc(C)n2nc(C3CCC3c3cn4ccc5c(c4n3)OCCO5)nc12` (racemic) [Compound 38, (±)-9-(2-(5,8-dimethyl-[1,2,4]triazolo[1,5-a]pyrazin-2-yl)cyclobutyl)-2,3-dihydro-[1,4]dioxino[2,3-c]imidazo[1,2-a]pyridine], 100 to 500 nM; that for `Cc1ncc(C)n2nc(C3CC3c3cn4ccc5c(c4n3)OCCO5)nc12` (racemic) [Compound 39, (±)-9-(2-(5,8-dimethyl-[1,2,4]triazolo[1,5-a]pyrazin-2-yl)cyclopropyl)-2,3-dihydro-[1,4]dioxino[2,3-c]imidazo[1,2-a]pyridine], 10 to 100 nM. As for `Cc1ncc(C)n2nc(C3CCC3c3nc4c5cccnc5ccc4n3C)nc12` (racemic) [Compound 40, (±)-2-(2-(5,8-dimethyl-[1,2,4]triazolo[1,5-a]pyrazin-2-yl)cyclobutyl)-3-methyl-3H-imidazo[4,5-f]quinoline], the IC50 is over 500 nM. The result for `COc1cccn2c(C)c(C3CCC3c3nc4c(C)ncc(C)n4n3)nc12` (racemic) [Compound 42, (±)-2-(2-(8-methoxy-3-methylimidazo[1,2-a]pyridin-2-yl)cyclobutyl)-5,8-dimethyl-[1,2,4]triazolo[1,5-a]pyrazine] reads over 500 nM. The result for `COc1ccn2c(C)c(C3CCC3c3nc4c(C)ncc(C)n4n3)nc2c1` (racemic) [Compound 43, (±)-2-(2-(7-methoxy-3-methylimidazo[1,2-a]pyridin-2-yl)cyclobutyl)-5,8-dimethyl-[1,2,4]triazolo[1,5-a]pyrazine] reads over 500 nM; that for `COc1cc(C)cn2c(F)c(C3CC3c3nc4c(C)ncc(C)n4n3)nc12` (racemic) [Compound 44, (±)-2-(2-(3-fluoro-8-methoxy-6-methylimidazo[1,2-a]pyridin-2-yl)cyclopropyl)-5,8-dimethyl-[1,2,4]triazolo[1,5-a]pyrazine], 10 to 100 nM. Next, `Cc1ncc(C)n2cc(C3CC3c3nc4c(C)ncc(C)n4n3)nc12` (racemic) [Compound 45, (±)-2-(2-(5,8-dimethylimidazo[1,2-a]pyrazin-2-yl)cyclopropyl)-5,8-dimethyl-[1,2,4]triazolo[1,5-a]pyrazine]: over 500 nM. For the compound `COc1cccc2c1nc(C1CC1c1nc3c(C)ncc(C)n3n1)n2C` (racemic) [Compound 46, (±)-2-(2-(4-methoxy-1-methyl-1H-benzo [d]imidazol-2-yl)cyclopropyl)-5,8-dimethyl-[1,2,4]triazolo[1,5-a]pyrazine], the IC50 was 100 to 500 nM. On to `COc1cccc2[nH]c(C3CC3c3nc4c(C)ncc(C)n4n3)nc12` (racemic) [Compound 47, (±)-2-(2-(4-methoxy-1H-benzo[d]imidazol-2-yl)cyclopropyl)-5,8-dimethyl-[1,2,4]triazolo[1,5-a]pyrazine], for which the IC50 fell in the range of 100 to 500 nM. Next, `Cc1ncc(C)n2nc(C3CC3c3nc4c5c(ccn4c3F)OCCO5)nc12` (racemic) [Compound 48, (±)-9-(2-(5,8-dimethyl-[1,2,4]triazolo[1,5-a]pyrazin-2-yl)cyclopropyl)-8-fluoro-2,3-dihydro-[1,4]dioxino[2,3-c]imidazo[1,2-a]pyridine]: 10 to 100 nM; `COc1cccn2c(F)c(C3CC3c3nc4c(C)ncc(C)n4n3)nc12` (racemic) [Compound 55, (±)-2-(2-(3-fluoro-8-methoxyimidazo[1,2-a]pyridin-2-yl)cyclopropyl)-5,8-dimethyl-[1,2,4]triazolo[1,5-a]pyrazine]: 10 to 100 nM. Next, `Fc1ccn2cc(C3CCC3c3cn4cccc(Cl)c4n3)nc2c1` (racemic) [Compound 58, (±)-8-chloro-2-(2-(7-fluoroimidazo[1,2-a]pyridin-2-yl)cyclobutyl)imidazo[1,2-a]pyridine]: over 500 nM; `COc1cccn2cc(C3CC3c3nc4c(C)ncc(C)n4n3)nc12` (racemic) [Compound 59, (±)-2-(2-(8-methoxyimidazo[1,2-a]pyridin-2-yl)cyclopropyl)-5,8-dimethyl-[1,2,4]triazolo[1,5-a]pyrazine]: 100 to 500 nM; `Cn1c([C@H]2C[C@@H]2c2ccc3ccccc3n2)nc2c3cccnc3ccc21` (single isomer, unassigned) [Compound 21]: 10 to 100 nM. Next, `Cn1c([C@@H]2C[C@H]2c2ccc3ccccc3n2)nc2c3cccnc3ccc21` (single isomer, unassigned) [Compound 22]: 100 to 500 nM; `Cc1ncc(C)n2nc([C@H]3C[C@@H]3c3nc4c5cccnc5ccn4c3C)nc12` (single isomer, unassigned) [Compound 26]: 100 to 500 nM.

Consider `Cc1ncc(C)n2nc([C@@H]3C[C@H]3c3nc4c5cccnc5ccn4c3C)nc12` (single isomer, unassigned) [Compound 27], for which the IC50 was at most 10 nM. The result for `COc1cccn2c(F)c([C@@H]3C[C@H]3c3nc4c(C)ncc(C)n4n3)nc12` (single isomer, unassigned) [Compound 56, 2-(2-(3-fluoro-8-methoxyimidazo[1,2-a]pyridin-2-yl)cyclopropyl)-5,8-dimethyl-[1,2,4]triazolo[1,5-a]pyrazine] reads over 500 nM. The result for `COc1cccn2c(F)c([C@@H]3C[C@H]3c3nc4c(C)ncc(C)n4n3)nc12` (single isomer, unassigned) [Compound 57, 2-(2-(3-fluoro-8-methoxyimidazo[1,2-a]pyridin-2-yl)cyclopropyl)-5,8-dimethyl-[1,2,4]triazolo[1,5-a]pyrazine] reads 10 to 100 nM.

On to `Cc1ncc(C)n2nc(C3CC3c3nc4c5cccnc5ccn4c3C)nc12` (stereo not drawn) [Compound 1, 2-(2-(5,8-Dimethyl-[1,2,4]triazolo[1,5-a]pyrazin-2-yl)cyclopropyl)-3-methylimidazo[2,1-f][1,6]naphthyridine], for which the IC50 is at most 10 nM.

With `COc1ccn2cc(C3CC3c3nc4c(C)ncc(C)n4n3)nc2c1C` (stereo not drawn) [Compound 2, 2-(2-(7-Methoxy-8-methylimidazo[1,2-a]pyridin-2-yl)cyclopropyl)-5,8-dimethyl-[1,2,4]triazolo[1,5-a]pyrazine], the IC50 is over 500 nM.

Consider `Cc1ncc(C)n2nc(C3CC3c3nc4c5ccccc5ccn4c3C)nc12` (stereo not drawn) [Compound 3], for which the IC50 is at most 10 nM.

Regarding `Cc1ncc(C)n2nc(C3CC3c3nc4cc(F)ccn4c3C)nc12` (stereo not drawn) [Compound 4], the IC50 was over 500 nM.

As for `Cc1ncc(C)n2nc(C3CC3c3nc4c(C5CC5)cccn4c3C)nc12` (stereo not drawn) [Compound 5, 2-(2-(8-Cyclopropyl-3-methylimidazo[1,2-a]pyridin-2-yl)cyclopropyl)-5,8-dimethyl-[1,2,4]triazolo[1,5-a]pyrazine], the IC50 lay within 10 to 100 nM. The result for `Cc1ccn2c(C)c(C3CC3c3nc4c(C)ncc(C)n4n3)nc2c1` (stereo not drawn) [Compound 6, 2-(2-(3,7-Dimethylimidazo[1,2-a]pyridin-2-yl)cyclopropyl)-5,8-dimethyl-[1,2,4]triazolo[1,5-a]pyrazine] reads 100 to 500 nM.
